Experimental data from PubChem BioAssay (NCI).
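Following 48 hours of exposure in 96-well plates, responses at five concentrations were used to interpolate endpoints linearly. The concentration for full growth arrest is given as TGI.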

Experiments:
Assay in all cases: NCI-60 cell line screen, 48 h
786-0 renal = test system: 786-0 renal
ACHN renal = test system: ACHN renal
CAKI-1 renal = test system: CAKI-1 renal
HCT-15 colon = test system: HCT-15 colon
HS 578T breast = test system: HS 578T breast
OVCAR-5 ovarian = test system: OVCAR-5 ovarian
PC-3 prostate = test system: PC-3 prostate
SNB-19 CNS = test system: SNB-19 CNS
SW-620 colon = test system: SW-620 colon
T-47D breast = test system: T-47D breast
UO-31 renal = test system: UO-31 renal
HL-60(TB) leukemia = test system: HL-60(TB) leukemia

CCN(CC)CCNC(=O)c1ccc(I)cc1
TGI (786-0 renal): > 100 µM
TGI (ACHN renal): > 100 µM
TGI (CAKI-1 renal): > 100 µM
TGI (HCT-15 colon): > 100 µM
TGI (HS 578T breast): > 100 µM
TGI (OVCAR-5 ovarian): > 100 µM
TGI (PC-3 prostate): > 100 µM
TGI (SNB-19 CNS): > 100 µM
TGI (SW-620 colon): > 100 µM
TGI (T-47D breast): > 100 µM
TGI (UO-31 renal): > 100 µM

c1ccc(C2=NOC3(c4ccccc4)SC4CCCCC4CN23)cc1 (stereo not drawn)
TGI (786-0 renal): > 100 µM
TGI (ACHN renal): 70.9 µM
TGI (CAKI-1 renal): 63.8 µM
TGI (HCT-15 colon): > 100 µM
TGI (HL-60(TB) leukemia): > 100 µM
TGI (OVCAR-5 ovarian): > 100 µM
TGI (SNB-19 CNS): > 100 µM
TGI (SW-620 colon): > 100 µM
TGI (UO-31 renal): > 100 µM

CC(C)(C)NC(=O)NC12CC3CC(CC(F)(C3)C1)C2
TGI (786-0 renal): > 100 µM
TGI (ACHN renal): > 100 µM
TGI (HL-60(TB) leukemia): > 100 µM
TGI (OVCAR-5 ovarian): > 100 µM
TGI (SNB-19 CNS): > 100 µM
TGI (SW-620 colon): > 100 µM
TGI (UO-31 renal): > 100 µM

O=c1[nH]c2cc([N+](=O)[O-])ccc2nc1/C(=N/Nc1ccccc1)C(O)c1ccc(C(O)/C(=N\Nc2ccccc2)c2cnc3cc([N+](=O)[O-])ccc3n2)cc1 (stereo not drawn)
TGI (786-0 renal): > 100 µM
TGI (ACHN renal): > 100 µM
TGI (CAKI-1 renal): > 100 µM
TGI (HL-60(TB) leukemia): > 100 µM
TGI (OVCAR-5 ovarian): 72.9 µM
TGI (SNB-19 CNS): > 100 µM
TGI (SW-620 colon): > 100 µM
TGI (UO-31 renal): > 100 µM

Cc1cc(C)c2c(c1)CC1(Cc3c(C)ccc(C)c3C1=O)C2=O (stereo not drawn)
TGI (ACHN renal): > 100 µM
TGI (CAKI-1 renal): > 100 µM
TGI (HCT-15 colon): > 100 µM
TGI (HL-60(TB) leukemia): > 100 µM
TGI (HS 578T breast): > 100 µM
TGI (OVCAR-5 ovarian): > 100 µM
TGI (PC-3 prostate): > 100 µM
TGI (SNB-19 CNS): > 100 µM
TGI (SW-620 colon): > 100 µM
TGI (T-47D breast): > 100 µM

O=C(Cc1csc(N=Nc2c(O)[nH]c3ccccc23)n1)Nc1ccccc1
TGI (786-0 renal): 34.3 µM
TGI (ACHN renal): 54.4 µM
TGI (CAKI-1 renal): 53.4 µM
TGI (HCT-15 colon): > 100 µM
TGI (HL-60(TB) leukemia): 94 µM
TGI (OVCAR-5 ovarian): > 100 µM
TGI (SNB-19 CNS): 85.4 µM
TGI (SW-620 colon): > 100 µM
TGI (T-47D breast): > 100 µM
TGI (UO-31 renal): 93.3 µM

COC(C(=O)C(O)C(C)O)C1CC2C=C3C=C(OC4CC(OC5CC(O)C(OC)C(C)O5)C(OC(C)=O)C(C)O4)C(C)C(=O)C3=C(O)C2=C(O)C1OC1CC(OC2CC(OC3CC(C)(O)C(OC(=O)C(C)C)C(C)O3)C(O)C(C)O2)C(O)C(C)O1 (stereo not drawn)
TGI (786-0 renal): < 0.01 µM
TGI (CAKI-1 renal): > 100 µM
TGI (HL-60(TB) leukemia): < 0.01 µM
TGI (HS 578T breast): < 0.01 µM
TGI (T-47D breast): < 0.01 µM

CCN(CC)CCCNc1ncc(C)c2[nH]c3ccncc3c12
TGI (HCT-15 colon): > 100 µM
TGI (HL-60(TB) leukemia): > 31.6 µM
TGI (OVCAR-5 ovarian): 26.7 µM
TGI (SNB-19 CNS): > 100 µM
TGI (SW-620 colon): 36.9 µM
TGI (UO-31 renal): > 100 µM

NC(=O)NC(=O)c1cccc(CNc2ccc(C(=O)N[C@@H](CCC(=O)O)C(=O)O)cc2)n1
TGI (786-0 renal): > 100 µM
TGI (ACHN renal): > 100 µM
TGI (CAKI-1 renal): > 100 µM
TGI (HCT-15 colon): > 100 µM
TGI (HL-60(TB) leukemia): > 100 µM
TGI (HS 578T breast): > 100 µM
TGI (OVCAR-5 ovarian): > 100 µM
TGI (PC-3 prostate): > 100 µM
TGI (SW-620 colon): > 100 µM
TGI (UO-31 renal): > 100 µM

COc1cc(NC(C)=O)ccc1C(=O)NN1C(=O)C(Cl)C1c1ccco1 (stereo not drawn)
TGI (786-0 renal): > 100 µM
TGI (ACHN renal): > 100 µM
TGI (CAKI-1 renal): > 100 µM
TGI (HCT-15 colon): > 100 µM
TGI (HL-60(TB) leukemia): > 100 µM
TGI (OVCAR-5 ovarian): > 100 µM
TGI (PC-3 prostate): > 100 µM
TGI (SNB-19 CNS): > 100 µM
TGI (SW-620 colon): > 100 µM
TGI (T-47D breast): > 100 µM
TGI (UO-31 renal): > 100 µM

CCOC(=O)Cc1csc2[n+]1C(=O)/C(=C\c1cccc(Cl)c1Cl)S2
TGI (786-0 renal): 31.2 µM
TGI (ACHN renal): 45.5 µM
TGI (CAKI-1 renal): 48.7 µM
TGI (HCT-15 colon): 31.9 µM
TGI (HL-60(TB) leukemia): 51.5 µM
TGI (HS 578T breast): 89.7 µM
TGI (OVCAR-5 ovarian): > 100 µM
TGI (PC-3 prostate): 37.7 µM
TGI (SNB-19 CNS): 88 µM
TGI (SW-620 colon): 56.6 µM
TGI (UO-31 renal): 27.1 µM

Cc1c2c(n(CCc3ccccc3)c1C)N(C)N=C(C#N)S2(=O)=O
TGI (786-0 renal): > 100 µM
TGI (ACHN renal): > 100 µM
TGI (CAKI-1 renal): > 100 µM
TGI (HCT-15 colon): > 100 µM
TGI (OVCAR-5 ovarian): > 100 µM
TGI (PC-3 prostate): > 100 µM
TGI (SNB-19 CNS): > 100 µM
TGI (SW-620 colon): > 100 µM
TGI (T-47D breast): > 100 µM
TGI (UO-31 renal): > 100 µM

Cc1ccc2c(sc(-c3ccc4c(c3)sc(-c3ccc5c(c3)sc(-c3ccc(N(C)C)cc3)[n+]5C)[n+]4C)[n+]2C)c1S(=O)(=O)O (tested in a mixture with another compound)
TGI (786-0 renal): > 100 µM
TGI (ACHN renal): > 100 µM
TGI (HCT-15 colon): > 100 µM
TGI (HL-60(TB) leukemia): > 100 µM
TGI (HS 578T breast): > 100 µM
TGI (OVCAR-5 ovarian): > 100 µM
TGI (PC-3 prostate): > 100 µM
TGI (SNB-19 CNS): > 100 µM
TGI (SW-620 colon): > 100 µM
TGI (T-47D breast): > 100 µM
TGI (UO-31 renal): > 100 µM

O=C(O)CS
TGI (786-0 renal): > 100 µM
TGI (CAKI-1 renal): > 100 µM
TGI (HCT-15 colon): > 100 µM
TGI (HL-60(TB) leukemia): > 100 µM
TGI (OVCAR-5 ovarian): > 100 µM
TGI (SNB-19 CNS): > 100 µM
TGI (SW-620 colon): > 100 µM
TGI (UO-31 renal): > 100 µM

COC(=O)c1cccc(N[C@@H]2c3cc4c(cc3C(c3cc(OC)c(O)c(OC)c3)[C@H]3C(=O)OCC32)OCO4)c1 (stereo partly drawn)
TGI (CAKI-1 renal): 2.91 µM
TGI (HCT-15 colon): 4.54 µM
TGI (HL-60(TB) leukemia): 1.1 µM
TGI (OVCAR-5 ovarian): > 100 µM
TGI (SNB-19 CNS): > 63.4 µM
TGI (SW-620 colon): > 100 µM
TGI (UO-31 renal): 11.7 µM

CC(=O)Oc1cc2c(c3ncccc13)OC(C)(C)C2
TGI (786-0 renal): 30.3 µM
TGI (ACHN renal): 23.9 µM
TGI (CAKI-1 renal): 21.3 µM
TGI (HCT-15 colon): 46.5 µM
TGI (HS 578T breast): 24.9 µM
TGI (OVCAR-5 ovarian): 29 µM
TGI (PC-3 prostate): > 100 µM
TGI (SW-620 colon): > 100 µM
TGI (T-47D breast): 81.2 µM
TGI (UO-31 renal): > 100 µM

CN(CCO)c1nc(N)cc(=O)[nH]1
TGI (786-0 renal): > 100 µM
TGI (ACHN renal): > 100 µM
TGI (CAKI-1 renal): > 100 µM
TGI (HCT-15 colon): > 100 µM
TGI (HL-60(TB) leukemia): > 100 µM
TGI (OVCAR-5 ovarian): > 100 µM
TGI (SNB-19 CNS): > 100 µM
TGI (SW-620 colon): > 100 µM
TGI (UO-31 renal): > 100 µM

Cc1oc(N)c(S(=O)(=O)c2ccc(Cl)cc2)c1C
TGI (786-0 renal): > 100 µM
TGI (ACHN renal): > 100 µM
TGI (HCT-15 colon): > 100 µM
TGI (HL-60(TB) leukemia): > 100 µM
TGI (HS 578T breast): > 100 µM
TGI (OVCAR-5 ovarian): > 100 µM
TGI (PC-3 prostate): 78 µM
TGI (SNB-19 CNS): > 100 µM
TGI (SW-620 colon): > 100 µM
TGI (T-47D breast): > 100 µM
TGI (UO-31 renal): > 100 µM

C/C(=N\Nc1nc2ccccc2n1C)c1cnccn1
TGI (786-0 renal): > 39.2 µM
TGI (ACHN renal): > 100 µM
TGI (CAKI-1 renal): > 100 µM
TGI (HCT-15 colon): > 100 µM
TGI (HL-60(TB) leukemia): 0.058 µM
TGI (OVCAR-5 ovarian): > 100 µM
TGI (PC-3 prostate): > 100 µM
TGI (SNB-19 CNS): > 100 µM
TGI (SW-620 colon): > 100 µM
TGI (T-47D breast): > 100 µM
TGI (UO-31 renal): > 100 µM

COc1cc(/C=C2/SC(c3ccccc3)N(c3ccccc3)C2=O)cc(OC)c1OC (stereo not drawn)
TGI (786-0 renal): > 100 µM
TGI (ACHN renal): > 100 µM
TGI (CAKI-1 renal): > 100 µM
TGI (HCT-15 colon): > 100 µM
TGI (HL-60(TB) leukemia): > 100 µM
TGI (HS 578T breast): > 100 µM
TGI (OVCAR-5 ovarian): > 100 µM
TGI (SNB-19 CNS): > 100 µM
TGI (SW-620 colon): > 100 µM
TGI (T-47D breast): > 100 µM
TGI (UO-31 renal): > 100 µM

C/C=C\C(CC(=O)NCCC1CN(S(=O)(=O)C(F)(F)F)c2ccccc21)CC(=O)OC (stereo not drawn)
TGI (786-0 renal): > 100 µM
TGI (ACHN renal): > 100 µM
TGI (CAKI-1 renal): > 100 µM
TGI (HCT-15 colon): > 100 µM
TGI (HS 578T breast): 72.3 µM
TGI (OVCAR-5 ovarian): > 100 µM
TGI (PC-3 prostate): > 100 µM
TGI (SNB-19 CNS): > 100 µM
TGI (SW-620 colon): > 100 µM
TGI (UO-31 renal): > 100 µM

S=P1(N2CCCCC2)Oc2ccc3ccccc3c2-c2c(ccc3ccccc23)O1
TGI (CAKI-1 renal): > 100 µM
TGI (HCT-15 colon): > 100 µM
TGI (HL-60(TB) leukemia): > 100 µM
TGI (OVCAR-5 ovarian): > 100 µM
TGI (SNB-19 CNS): > 100 µM
TGI (SW-620 colon): > 100 µM
TGI (UO-31 renal): > 100 µM
